The test addresses human sodium ion channel 1.7 (hNav1.7) (Homo sapiens, UniProt Q15858). The test is described as follows: Blocking effect against sodium ion channel Nav1.7, IonFlux16 auto patch clamp in hNav1.7 HEK293 cells. The test is classed as cell-based. The settings on record: hNav1.7 HEK293 cells; inhibition of peak current after 50 seconds treatment; eight concentrations; read-out: IC50.

Structures are written as SMILES.

Sequence of human sodium ion channel 1.7 (hNav1.7) (Q15858 whole entry): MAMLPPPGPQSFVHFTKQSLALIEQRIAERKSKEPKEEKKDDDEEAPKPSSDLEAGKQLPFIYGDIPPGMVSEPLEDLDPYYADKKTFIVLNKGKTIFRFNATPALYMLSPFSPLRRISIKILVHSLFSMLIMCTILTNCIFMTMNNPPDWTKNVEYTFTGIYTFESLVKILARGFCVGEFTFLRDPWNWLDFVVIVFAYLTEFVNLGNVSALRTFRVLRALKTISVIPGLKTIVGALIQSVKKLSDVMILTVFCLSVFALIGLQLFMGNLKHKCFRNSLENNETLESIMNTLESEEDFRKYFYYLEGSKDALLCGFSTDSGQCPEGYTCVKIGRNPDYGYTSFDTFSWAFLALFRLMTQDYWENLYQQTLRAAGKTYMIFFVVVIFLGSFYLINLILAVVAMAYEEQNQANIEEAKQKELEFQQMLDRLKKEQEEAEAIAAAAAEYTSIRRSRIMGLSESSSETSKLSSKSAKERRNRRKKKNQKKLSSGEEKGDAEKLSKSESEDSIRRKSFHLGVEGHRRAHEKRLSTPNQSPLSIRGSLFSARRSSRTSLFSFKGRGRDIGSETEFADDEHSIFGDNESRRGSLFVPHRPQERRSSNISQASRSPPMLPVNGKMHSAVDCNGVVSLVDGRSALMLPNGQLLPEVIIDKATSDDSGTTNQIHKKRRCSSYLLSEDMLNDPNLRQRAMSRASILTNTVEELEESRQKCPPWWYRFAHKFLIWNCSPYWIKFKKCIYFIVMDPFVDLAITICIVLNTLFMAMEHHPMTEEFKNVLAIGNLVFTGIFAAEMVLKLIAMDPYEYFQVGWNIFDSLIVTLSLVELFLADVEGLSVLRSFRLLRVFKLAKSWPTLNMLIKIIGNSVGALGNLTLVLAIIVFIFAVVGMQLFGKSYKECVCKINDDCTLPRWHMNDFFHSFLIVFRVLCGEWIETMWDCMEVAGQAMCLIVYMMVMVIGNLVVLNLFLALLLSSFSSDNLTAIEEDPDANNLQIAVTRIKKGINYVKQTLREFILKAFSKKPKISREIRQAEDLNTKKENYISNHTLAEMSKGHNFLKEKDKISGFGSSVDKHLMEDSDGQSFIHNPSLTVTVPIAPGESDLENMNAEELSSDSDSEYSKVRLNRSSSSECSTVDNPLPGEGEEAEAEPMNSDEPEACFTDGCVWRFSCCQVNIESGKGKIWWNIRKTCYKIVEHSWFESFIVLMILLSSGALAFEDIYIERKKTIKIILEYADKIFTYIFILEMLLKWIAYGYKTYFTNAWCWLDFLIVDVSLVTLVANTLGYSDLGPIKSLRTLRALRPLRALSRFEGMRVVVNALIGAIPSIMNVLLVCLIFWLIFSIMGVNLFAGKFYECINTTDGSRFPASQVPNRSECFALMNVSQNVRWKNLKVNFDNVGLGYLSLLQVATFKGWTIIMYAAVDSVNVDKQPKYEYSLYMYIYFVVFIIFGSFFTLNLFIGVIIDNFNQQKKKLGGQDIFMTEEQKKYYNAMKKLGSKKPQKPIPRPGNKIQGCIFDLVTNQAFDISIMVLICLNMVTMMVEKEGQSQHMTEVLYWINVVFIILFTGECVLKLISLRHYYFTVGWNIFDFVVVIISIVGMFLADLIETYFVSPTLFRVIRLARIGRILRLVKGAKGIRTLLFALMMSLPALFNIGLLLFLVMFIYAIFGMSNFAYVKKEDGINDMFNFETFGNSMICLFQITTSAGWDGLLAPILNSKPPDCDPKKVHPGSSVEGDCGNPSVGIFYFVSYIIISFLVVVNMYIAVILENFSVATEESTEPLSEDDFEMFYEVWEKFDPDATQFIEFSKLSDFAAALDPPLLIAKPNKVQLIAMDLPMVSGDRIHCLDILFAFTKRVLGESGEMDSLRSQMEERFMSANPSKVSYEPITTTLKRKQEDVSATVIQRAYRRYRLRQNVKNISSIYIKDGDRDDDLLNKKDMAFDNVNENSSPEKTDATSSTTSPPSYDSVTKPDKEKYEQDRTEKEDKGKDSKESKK

Regarding `CS(=O)(=O)N(Cc1ccc(F)cc1)C(=O)c1cc(Cl)c(-n2nc(Cl)c3cc(O)ccc32)cc1F` [Example 141, 5-chloro-4-(3-chloro-5-hydroxy-1H-indazol-1-yl)-2-fluoro-N-(4-fluorobenzyl)-N-(methylsulfonyl)benzamide], the IC50 is > 10000 nM.

Regarding `CS(=O)(=O)NC(=O)c1cc(Cl)c(-n2nc(-c3ccc(Cl)cc3F)c3cc(F)ccc32)cc1F` [Example 142, 5-chloro-4-(3-(4-chloro-2-fluorophenyl)-5-fluoro-1H-indazol-1-yl)-2-fluoro-N-(methylsulfonyl)benzamide], the IC50 came to 30 nM.

In the case of `CS(=O)(=O)NC(=O)c1cc(Cl)c(-n2nc(-c3ccccc3F)c3cc(F)ccc32)cc1F` [Example 143, 5-chloro-2-fluoro-4-(5-fluoro-3-(2-fluorophenyl)-1H-indazol-1-yl)-N-(methylsulfonyl)benzamide], the IC50 was 120 nM.

For the compound `CS(=O)(=O)NC(=O)c1cc(Cl)c(-n2nc(-c3ccccc3Cl)c3cc(F)ccc32)cc1F` [Example 144, 5-chloro-4-(3-(2-chlorophenyl)-5-fluoro-1H-indazol-1-yl)-2-fluoro-N-(methylsulfonyl)benzamide], the IC50 was found to be 540 nM.

For the compound `CS(=O)(=O)NC(=O)c1cc(Cl)c(-n2nc(-c3ccccc3C(F)(F)F)c3cc(F)ccc32)cc1F` [Example 145, 5-chloro-2-fluoro-4-(5-fluoro-3-(2-(trifluoromethyl)phenyl)-1H-indazol-1-yl)-N-(methylsulfonyl)benzamide], the IC50 is 110 nM.

Consider `COc1ccccc1-c1nn(-c2cc(F)c(C(=O)NS(C)(=O)=O)cc2Cl)c2ccc(F)cc12` [Example 146, 5-chloro-2-fluoro-4-(5-fluoro-3-(2-methoxyphenyl)-1H-indazol-1-yl)-N-(methylsulfonyl)benzamide], for which the IC50 is 200 nM.

Turning to `Cc1ccccc1-c1nn(-c2cc(F)c(C(=O)NS(C)(=O)=O)cc2Cl)c2ccc(F)cc12` [Example 147, 5-chloro-2-fluoro-4-(5-fluoro-3-(o-tolyl)-1H-indazol-1-yl)-N-(methylsulfonyl)benzamide], the IC50 is 60 nM.

For the compound `CS(=O)(=O)NC(=O)c1cc(Cl)c(-n2nc(-c3cccc(F)c3)c3cc(F)ccc32)cc1F` [Example 148, 5-chloro-2-fluoro-4-(5-fluoro-3-(3-fluorophenyl)-1H-indazol-1-yl)-N-(methylsulfonyl)benzamide], the IC50 was determined as 90 nM.

With `CS(=O)(=O)NC(=O)c1cc(Cl)c(-n2nc(-c3cccc(Cl)c3)c3cc(F)ccc32)cc1F` [Example 149, 5-chloro-4-(3-(3-chlorophenyl)-5-fluoro-1H-indazol-1-yl)-2-fluoro-N-(methylsulfonyl)benzamide], the half-inhibitory concentration (IC50) is 40 nM.

With `CS(=O)(=O)NC(=O)c1cc(Cl)c(-n2nc(-c3cccc(C(F)(F)F)c3)c3cc(F)ccc32)cc1F` [Example 150, 5-chloro-2-fluoro-4-(5-fluoro-3-(3-(trifluoromethyl)phenyl)-1H-indazol-1-yl)-N-(methylsulfonyl)benzamide], the IC50 is 180 nM.

For the compound `COc1cccc(-c2nn(-c3cc(F)c(C(=O)NS(C)(=O)=O)cc3Cl)c3ccc(F)cc23)c1` [Example 151, 5-chloro-2-fluoro-4-(5-fluoro-3-(3-methoxyphenyl)-1H-indazol-1-yl)-N-(methylsulfonyl)benzamide], the IC50 worked out at 80 nM.

With `Cc1cccc(-c2nn(-c3cc(F)c(C(=O)NS(C)(=O)=O)cc3Cl)c3ccc(F)cc23)c1` [Example 152, 5-chloro-2-fluoro-4-(5-fluoro-3-(m-tolyl)-1H-indazol-1-yl)-N-(methylsulfonyl)benzamide], the IC50 stood at 80 nM.

Regarding `CS(=O)(=O)NC(=O)c1cc(Cl)c(-n2nc(-c3ccc(F)cc3)c3cc(F)ccc32)cc1F` [Example 153, 5-chloro-2-fluoro-4-(5-fluoro-3-(4-fluorophenyl)-1H-indazol-1-yl)-N-(methylsulfonyl)benzamide], the IC50 turned out to be 200 nM.

On to `CS(=O)(=O)NC(=O)c1cc(Cl)c(-n2nc(-c3ccc(Cl)cc3)c3cc(F)ccc32)cc1F` [Example 154, 5-chloro-4-(3-(4-chlorophenyl)-5-fluoro-1H-indazol-1-yl)-2-fluoro-N-(methylsulfonyl)benzamide], for which the IC50 was found to be 60 nM.

`COc1ccc(-c2nn(-c3cc(F)c(C(=O)NS(C)(=O)=O)cc3Cl)c3ccc(F)cc23)cc1` [Example 155, 5-chloro-2-fluoro-4-(5-fluoro-3-(4-methoxyphenyl)-1H-indazol-1-yl)-N-(methylsulfonyl)benzamide]: the IC50 worked out at 110 nM.

As for `Cc1ccc(-c2nn(-c3cc(F)c(C(=O)NS(C)(=O)=O)cc3Cl)c3ccc(F)cc23)cc1` [Example 156, 5-chloro-2-fluoro-4-(5-fluoro-3-(p-tolyl)-1H-indazol-1-yl)-N-(methylsulfonyl)benzamide], the IC50 was 100 nM.

For `CS(=O)(=O)NC(=O)c1cc(Cl)c(-n2nc(-c3cc(F)cc(Cl)c3)c3cc(F)ccc32)cc1F` [Example 157, 5-chloro-4-(3-(3-chloro-5-fluorophenyl)-5-fluoro-1H-indazol-1-yl)-2-fluoro-N-(methylsulfonyl)benzamide], the IC50 is 100 nM.

In the case of `CS(=O)(=O)NC(=O)c1cc(Cl)c(-n2nc(-c3ccc(F)cc3Cl)c3cc(F)ccc32)cc1F` [Example 158, 5-chloro-4-(3-(2-chloro-4-fluorophenyl)-5-fluoro-1H-indazol-1-yl)-2-fluoro-N-(methylsulfonyl)benzamide], the IC50 worked out at 80 nM.

As for `CS(=O)(=O)NC(=O)c1cc(Cl)c(-n2nc(-c3ccc(F)cc3F)c3cc(F)ccc32)cc1F` [Example 159, 5-chloro-4-(3-(2,4-difluorophenyl)-5-fluoro-1H-indazol-1-yl)-2-fluoro-N-(methylsulfonyl)benzamide], the IC50 is 100 nM.

Regarding `CS(=O)(=O)NC(=O)c1cc(Cl)c(-n2nc(-c3cc(F)ccc3F)c3cc(F)ccc32)cc1F` [Example 160, 5-chloro-4-(3-(2,5-difluorophenyl)-5-fluoro-1H-indazol-1-yl)-2-fluoro-N-(methylsulfonyl)benzamide], the IC50 turned out to be 210 nM.

Take `CS(=O)(=O)NC(=O)c1cc(Cl)c(-n2nc(-c3ccc(F)c(F)c3)c3cc(F)ccc32)cc1F` [Example 161, 5-chloro-4-(3-(3,4-difluorophenyl)-5-fluoro-1H-indazol-1-yl)-2-fluoro-N-(methylsulfonyl)benzamide]: the IC50 is 120 nM.

For the compound `CS(=O)(=O)NC(=O)c1cc(Cl)c(-n2nc(-c3c(F)cccc3Cl)c3cc(F)ccc32)cc1F` [Example 162, 5-chloro-4-(3-(2-chloro-6-fluorophenyl)-5-fluoro-1H-indazol-1-yl)-2-fluoro-N-(methylsulfonyl)benzamide], the IC50 was determined as 640 nM.

For the compound `CS(=O)(=O)NC(=O)c1cc(Cl)c(-n2nc(-c3cccc(Cl)c3F)c3cc(F)ccc32)cc1F` [Example 163, 5-chloro-4-(3-(3-chloro-2-fluorophenyl)-5-fluoro-1H-indazol-1-yl)-2-fluoro-N-(methylsulfonyl)benzamide], the IC50 was 120 nM.

In the case of `CS(=O)(=O)NC(=O)c1cc(Cl)c(-n2nc(-c3ccc(Cl)c(F)c3)c3cc(F)ccc32)cc1F` [Example 164, 5-chloro-4-(3-(4-chloro-3-fluorophenyl)-5-fluoro-1H-indazol-1-yl)-2-fluoro-N-(methylsulfonyl)benzamide], the IC50 is 220 nM.

Source of the values: patent US10590078B2, “Sodium channel blockers” (Daewoong Pharmaceutical Co., Ltd., priority 2015, dated 2020).
